Source: US20070293572A1, “Anti-Fatigue Composition” (priority 2004, published 2007)

Tested on: Sprague-Dawley male rats
Test: Treadmill Test using Young Rat (1)
Assay type: in vivo
Conditions: oral 100 mg/kg; for Extension of maximum running time (result in words): before vs three hours after administration; for Extension of maximum running time: maximum running time three hours after vs before administration, 7 to 10 week old rats, n=20
Description: Treadmill Test using Young Rat (1)
Using Sprague-Dawley malerats (7 to 10 week old, n=20) anti-fatigue effects brought about by reduced coenzyme Q10 alone (about 2% of oxidized coenzyme Q10 included), carnitine alone, and combination use of reduced coenzyme Q10 and carnitine were evaluated with a treadmill. In the test, rats were run at a speed of 10 m/min using a treadmill apparatus (model NK-73-4 made by Natume Seisakusho Co., Ltd.), and the speed was increased stepwise, by 5 m/min every 3 minutes, and the time when the rats became unable to run (maximum running time) was measured.
As a substance to be tested, a 0.5% sodium carboxymethylcellulose (CMC-Na) aqueous solution of reduced coenzyme Q10 (about 2% of oxidized coenzyme Q10 included) or carnitine (reduced coenzyme Q10 or carnitine/CMC-Na=10 mg/ml) was prepared and the solution was orally administered to rats at a dose of 100 mg/kg. Rats were divided into four groups of a solvent administered group, reduced coenzyme Q10 only administered group, a carnitine only administered group, and a reduced coenzyme Q10 and carnitine combined group. The maximum running time was measured before and three hours after the administration and the time extended from the maximum running time was calculated. A 0.5% CMC-Na aqueous solution was administered to the control group.

SMILES | Extension of maximum running time (result in words) | Extension of maximum running time
C[N+](C)(C)CC(O)CC(=O)[O-] (stereo not shown) [Carnitine, 4-trimethylamino-3-hydroxybutyric acid] | no extension of the maximum running time | −0 ± 151 S
COc1c(O)c(C)c(C/C=C(\C)CC/C=C(\C)CC/C=C(\C)CC/C=C(\C)CC/C=C(\C)CC/C=C(\C)CC/C=C(\C)CC/C=C(\C)CC/C=C(\C)CCC=C(C)C)c(O)c1OC [Reduced coenzyme Q10, reduced coenzyme Q10] | no extension of the maximum running time | −22 ± 71 S
